Converted amounts (≈) assume the structure as drawn. Read-outs that look alike come from different tables or passages of the source.
Columns and labels:
[1] = system: Trypanosoma brucei rhodesiense STIB 900 bloodstream forms; test: In vitro trypanocidal activity (Alamar Blue assay, 72 h); type: cell-based; details: for SI: selectivity index (IC50 of L6 cells/ IC50 of T.b.rhodesiense): L6 cells versus T. b. rhodesiense; for IC50: Trypanosoma brucei, 72 h, read-out: T.b.rhodesiense IC50
Experimental: Minimum essential medium (50 μl) supplemented according to a standard method, with 2-mercaptoethanol and 15% heat inactivated horse serum was added to each well of a 96-well microtiter plate. Serial three-fold compound dilutions were prepared covering a range from 90 to 0.123 μg/ml. Then 10^4 bloodstream forms of Trypanosoma brucei rhodesiense STIB 900 (a clone of a population isolated in 1982 from a patient in Tanzania) in 50 μl culture medium were added to each well and the plate incubated at 37°C under a 5% CO2 atmosphere for 72 h. Ten microlitres of Alamar Blue (12.5 mg resazurin dissolved in 100 ml distilled water) were then added to each well and incubation continued for a further 2–4 h. The plate was then read in a Spectramax Gemini XS microplate fluorometer (Molecular Devices Cooperation, Sunnyvale, CA, USA) using an excitation wavelength of 536 nm and emission wavelength of 588 nm. Fluorescence development was measured and expressed as percentage of the control. Data were transferred into the graphic programme Softmax Pro (Molecular Devices) which calculated IC50 values. Melarsoprol was used as standard drug.

L6 cells = test: Cytotoxicity in rat skeletal myoblast cell line (L6 cells); type: cell-based
Experimental: Cytotoxicity was determined using a rat skeletal myoblast cell line (L6 cells). The culture medium was RPMI 1640 supplemented with L-glutamine 2 mM, HEPES 5.95 g/l, NaHCO3 2 g/l and 10% foetal bovine serum. Podophyllotoxin (Sigma-Aldrich) was used as the reference drug. The assay was performed following the antitrypanosomal assay protocol as described above. The IC50 values were calculated from the sigmoidal growth inhibition curves using Softmax Pro software (Molecular Devices Corp.). Tests were done in three independent experiments in duplicate.

[2] = T. b. rhodesiense STIB 900 bloodstream forms, 72 h incubation, Alamar Blue
[3] = rat skeletal myoblast L6 cells, cytotoxicity, read-out: L6 Cells IC50

Row | Molecule | IC50 (L6 cells; [3]) [µg/mL] | IC50 [1, 2] [µg/mL] | also measured
1 | COc1cc2oc(-c3ccc(O)cc3)c(OC)c(=O)c2c(O)c1OC [Compound 3, Penduletin] | 14 (≈ 40.7 µM) |  | T.b.rhodesiense IC50 [1, 2]: 13.8 µg/mL
2 | COc1ccc(-c2oc3cc(OC)c(OC)c(O)c3c(=O)c2OC)cc1OC [Compound 6, Artemetin] | 46.2 (≈ 119 µM) | 4.7 (≈ 12.1 µM) | SI: selectivity index (IC50 of L6 cells/ IC50 of T.b.rhodesiense) [1]: 9.8
3 | COc1cc([C@@H]2c3cc4c(cc3[C@H](O)[C@H]3COC(=O)[C@H]23)OCO4)cc(OC)c1OC [Podophyllotoxin, reference compound] |  |  | IC50 (L6 cells; Rattus norvegicus, L6, read-out: L6 Cells IC50): 0.005 µg/mL (≈ 0.0121 µM)
4 | COc1cc(O)c2c(=O)c(OC)c(-c3ccc(O)cc3)oc2c1 [Compound 4, 2-(4′-hydroxyphenyl)-5-hydroxy 3,7-dimethoxy chromen-4-one] | 28.2 (≈ 89.7 µM) | 19.4 (≈ 61.7 µM) | SI: selectivity index (IC50 of L6 cells/ IC50 of T.b.rhodesiense) [1]: 1.4
5 | O=c1c(O)c(-c2ccc(O)cc2)oc2cc(O)cc(O)c12 [Compound 5, 2-(4-hydroxyphenyl)-3,5,7-trihydroxy chromen-4-one] | 100 (≈ 349 µM) | 23.7 (≈ 82.8 µM) | 
6 | 2-(3′,4′-dimethoxyphenyl)-7-hydroxychromen-4-one [Compound 7] |  |  | T.b.rhodesiense IC50 [1, 2]: 10.8 µg/mL; L6 Cells IC50 (L6 cells; rat skeletal myoblast L6 cells, cytotoxicity): 1.58 µg/mL
7 | Nc1nc(N)nc(Nc2ccc([As]3SCC(CO)S3)cc2)n1 (stereo not shown) [Melarsoprol, reference compound] |  |  | IC50 [1]: 0.002 µg/mL
8 | COc1cc(-c2oc3cc(O)cc(O)c3c(=O)c2OC)ccc1O [Compound 2, 2-(5′-methoxyphenyl) 4′,5,7-trihydroxy-3-methoxychromen-4-one] | 6.64 (≈ 20.1 µM) | 12.3 (≈ 37.2 µM) | 

— publication PMC4384300, “Evaluation of the in vitro trypanocidal activity of methylated flavonoid constituents of Vitex simplicifolia leaves” (BMC Complementary and Alternative Medicine, 2015)
